{
  "source": "patent US20230277654A1",
  "about": "“STABLE FORMULATIONS OF CYTOMEGALOVIRUS” (priority 2017, published 2023)",
  "key": {"rdCMV": {"tested_on": "rdCMV", "assay": "Shield-1 dependence of rdCMV replication", "format": "cell-based, cytomegalovirus", "conditions": "rdCMV in ARPE-19 cells and other human primary cells", "text": "Conversely, rdCMV should not replicate substantially in the absence of Shield-1. The quality of a replication defective mechanism is judged by how stringent the control is under the conditions not permissive for viral replication, i.e., the infectious titers of progeny virions under these conditions. The rdCMV described herein cannot replicate substantially (either in cell culture or within a patient) without Shield-1 present. Its replication in ARPE-19 cells and other types of human primary cells is conditional, and a molar concentration of Shield-1 greater than 0.1 μM, preferable at least 2 μM, in the culture medium is required to sustain viral replication."}, "FKBP": {"tested_on": "FKBP", "conditions": "Clackson et al., 1998; cited from earlier work"}},
  "data": [
    {"smiles": "CC[C@H](C(=O)N1CCCC[C@H]1C(=O)O[C@H](CCc1ccc(OC)c(OC)c1)c1cccc(OCCN2CCOCC2)c1)c1cc(OC)c(OC)c(OC)c1", "note": "[Shield-1]", "values": [
      {"measurement": "molar concentration in the culture medium required to sustain viral replication", "setting": "rdCMV", "value": "greater than 0.1 μM"},
      {"measurement": "binding to the F36V derivative compared to wild-type FKBP (tighter)", "setting": "FKBP", "value": "about 1,000 fold"}
    ]}
  ]
}
